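Grown in 96-well plates, cells were treated for 48 hours with each compound at five concentrations. Insufficient inhibition: endpoint recorded as highest concentration tested. Here, GI50 denotes the concentration required for 50% inhibition of growth.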 Calls of active or inactive are those of the source. Cut-off read from the data, not from the text of the source: active = GI50 up to about 1.1 µM and inactive = higher.
Experiments:
Assay in all cases: NCI tumour cell line growth inhibition, 48 h
HCC 2998 = system: HCC 2998
SNB-75 = system: SNB-75
786-0 = system: 786-0
NCI-H23 = system: NCI-H23
NCI-H460 = system: NCI-H460
CAKI-1 = system: CAKI-1
U-251 = system: U-251
SN12C = system: SN12C
UO-31 = system: UO-31
PC-3 = system: PC-3
HCT-15 = system: HCT-15
SF-268 = system: SF-268
HOP-62 = system: HOP-62
K562 = system: K562
MCF7 = system: MCF7
NCI-H522 = system: NCI-H522
MOLT-4 = system: MOLT-4
HT-29 = system: HT-29
COLO 205 = system: COLO 205
SK-MEL-5 = system: SK-MEL-5
IGROV-1 = system: IGROV-1
M14 = system: M14
RPMI-8226 = system: RPMI-8226
SK-OV-3 = system: SK-OV-3
SF-539 = system: SF-539
OVCAR-4 = system: OVCAR-4
OVCAR-8 = system: OVCAR-8
ACHN = system: ACHN
NCI-H226 = system: NCI-H226
SNB-19 = system: SNB-19
HOP-92 = system: HOP-92
OVCAR-5 = system: OVCAR-5
SK-MEL-28 = system: SK-MEL-28
SF-295 = system: SF-295
OVCAR-3 = system: OVCAR-3
CCRF-CEM = system: CCRF-CEM
A549 = system: A549
HCT-116 = system: HCT-116
HL-60 = system: HL-60
MDA-N = system: MDA-N
SW-620 = system: SW-620
Hs-578T = system: Hs-578T
DU-145 = system: DU-145
T47D = system: T47D
NCI/ADR-RES = system: NCI/ADR-RES
KM12 = system: KM12
MDA-MB-435 = system: MDA-MB-435
A498 = system: A498
TK-10 = system: TK-10
EKVX = system: EKVX
LOX IMVI = system: LOX IMVI
UACC-62 = system: UACC-62
SK-MEL-2 = system: SK-MEL-2
SR = system: SR
UACC-257 = system: UACC-257
MDA-MB-231 = system: MDA-MB-231
Malme-3M = system: Malme-3M
RXF 393 = system: RXF 393

## n1onc2c1NC1Nc3nonc3NC1N2 (configuration not stated)
HCC 2998
  GI50: > 100 µM (inactive)
SNB-75
  GI50: > 100 µM (inactive)
786-0
  GI50: > 100 µM (inactive)
NCI-H23
  GI50: > 100 µM (inactive)
NCI-H460
  GI50: > 100 µM (inactive)
CAKI-1
  GI50: > 100 µM (inactive)
U-251
  GI50: > 100 µM (inactive)
SN12C
  GI50: > 100 µM (inactive)
UO-31
  GI50: > 100 µM (inactive)
PC-3
  GI50: > 100 µM (inactive)
HCT-15
  GI50: > 100 µM
SF-268
  GI50: > 100 µM (inactive)
HOP-62
  GI50: > 100 µM (inactive)
K562
  GI50: > 100 µM (inactive)
MCF7
  GI50: > 100 µM (inactive)
NCI-H522
  GI50: > 100 µM (inactive)
MOLT-4
  GI50: > 100 µM (inactive)
HT-29
  GI50: > 100 µM (inactive)
COLO 205
  GI50: > 100 µM (inactive)
SK-MEL-5
  GI50: > 100 µM (inactive)
IGROV-1
  GI50: > 100 µM (inactive)
M14
  GI50: > 100 µM (inactive)
RPMI-8226
  GI50: > 100 µM (inactive)
SK-OV-3
  GI50: > 100 µM (inactive)
SF-539
  GI50: > 100 µM (inactive)
OVCAR-4
  GI50: > 100 µM (inactive)
OVCAR-8
  GI50: > 100 µM (inactive)
ACHN
  GI50: > 100 µM (inactive)
NCI-H226
  GI50: > 100 µM (inactive)
SNB-19
  GI50: 27.7 µM (inactive)
HOP-92
  GI50: > 100 µM (inactive)
OVCAR-5
  GI50: > 100 µM (inactive)
SK-MEL-28
  GI50: > 100 µM (inactive)
SF-295
  GI50: > 100 µM (inactive)
OVCAR-3
  GI50: > 100 µM (inactive)
CCRF-CEM
  GI50: > 100 µM (inactive)
A549
  GI50: > 100 µM (inactive)
HCT-116
  GI50: > 100 µM (inactive)
HL-60
  GI50: > 100 µM (inactive)
MDA-N
  GI50: > 100 µM (inactive)
SW-620
  GI50: > 100 µM (inactive)
Hs-578T
  GI50: > 100 µM (inactive)
DU-145
  GI50: > 100 µM (inactive)
T47D
  GI50: > 100 µM (inactive)
NCI/ADR-RES
  GI50: > 100 µM (inactive)
KM12
  GI50: > 100 µM (inactive)
MDA-MB-435
  GI50: > 100 µM (inactive)
A498
  GI50: > 100 µM (inactive)
TK-10
  GI50: > 100 µM (inactive)
EKVX
  GI50: > 100 µM (inactive)
LOX IMVI
  GI50: > 100 µM (inactive)

## O=C(O)c1ccccc1C(=O)NCC1S(=O)(=O)OCCOS1(=O)=O
HCC 2998
  GI50: > 100 µM (inactive)
SNB-75
  GI50: > 100 µM (inactive)
UACC-62
  GI50: > 100 µM (inactive)
786-0
  GI50: > 100 µM (inactive)
NCI-H23
  GI50: > 100 µM (inactive)
NCI-H460
  GI50: > 100 µM (inactive)
CAKI-1
  GI50: > 100 µM (inactive)
U-251
  GI50: > 100 µM (inactive)
SK-MEL-2
  GI50: > 100 µM (inactive)
SN12C
  GI50: > 100 µM (inactive)
UO-31
  GI50: > 100 µM (inactive)
PC-3
  GI50: > 100 µM (inactive)
HCT-15
  GI50: > 100 µM
SF-268
  GI50: > 100 µM (inactive)
HOP-62
  GI50: > 100 µM (inactive)
K562
  GI50: > 100 µM (inactive)
SR
  GI50: > 100 µM (inactive)
MCF7
  GI50: > 100 µM (inactive)
NCI-H522
  GI50: > 100 µM (inactive)
MOLT-4
  GI50: > 100 µM (inactive)
HT-29
  GI50: > 100 µM (inactive)
COLO 205
  GI50: > 100 µM (inactive)
UACC-257
  GI50: > 100 µM (inactive)
SK-MEL-5
  GI50: > 100 µM (inactive)
IGROV-1
  GI50: > 100 µM (inactive)
M14
  GI50: > 100 µM (inactive)
RPMI-8226
  GI50: > 100 µM (inactive)
SK-OV-3
  GI50: > 100 µM (inactive)
SF-539
  GI50: > 100 µM (inactive)
OVCAR-4
  GI50: > 100 µM (inactive)
OVCAR-8
  GI50: > 100 µM (inactive)
ACHN
  GI50: > 100 µM (inactive)
MDA-MB-231
  GI50: > 100 µM (inactive)
NCI-H226
  GI50: > 100 µM (inactive)
SNB-19
  GI50: > 100 µM (inactive)
HOP-92
  GI50: > 100 µM (inactive)
OVCAR-5
  GI50: > 100 µM (inactive)
SK-MEL-28
  GI50: > 100 µM (inactive)
Malme-3M
  GI50: > 100 µM (inactive)
SF-295
  GI50: > 100 µM (inactive)
OVCAR-3
  GI50: > 100 µM (inactive)
CCRF-CEM
  GI50: > 100 µM (inactive)
A549
  GI50: > 100 µM (inactive)
HCT-116
  GI50: > 100 µM (inactive)
HL-60
  GI50: > 100 µM (inactive)
MDA-N
  GI50: > 100 µM (inactive)
RXF 393
  GI50: > 100 µM (inactive)
SW-620
  GI50: > 100 µM (inactive)
Hs-578T
  GI50: > 100 µM (inactive)
DU-145
  GI50: > 100 µM (inactive)
T47D
  GI50: > 100 µM (inactive)
NCI/ADR-RES
  GI50: > 100 µM (inactive)
MDA-MB-435
  GI50: > 100 µM (inactive)
A498
  GI50: > 100 µM (inactive)
TK-10
  GI50: > 100 µM (inactive)
EKVX
  GI50: > 100 µM (inactive)
LOX IMVI
  GI50: > 100 µM (inactive)

## CCOC(=O)C1(C(=O)OCC)C[C@]23OCCC(=O)[C@H]2[C@H]2C(=O)OC(C)(C)O[C@]23C1
HCC 2998
  GI50: > 100 µM (inactive)
SNB-75
  GI50: > 100 µM (inactive)
UACC-62
  GI50: > 100 µM (inactive)
786-0
  GI50: > 100 µM (inactive)
NCI-H23
  GI50: > 100 µM (inactive)
NCI-H460
  GI50: > 100 µM (inactive)
CAKI-1
  GI50: > 100 µM (inactive)
U-251
  GI50: > 100 µM (inactive)
SK-MEL-2
  GI50: > 100 µM (inactive)
SN12C
  GI50: > 100 µM (inactive)
UO-31
  GI50: > 100 µM (inactive)
PC-3
  GI50: > 100 µM (inactive)
HCT-15
  GI50: > 100 µM
SF-268
  GI50: > 100 µM (inactive)
HOP-62
  GI50: > 100 µM (inactive)
SR
  GI50: > 100 µM (inactive)
MCF7
  GI50: > 100 µM (inactive)
NCI-H522
  GI50: > 100 µM (inactive)
MOLT-4
  GI50: > 100 µM (inactive)
HT-29
  GI50: > 100 µM (inactive)
COLO 205
  GI50: > 100 µM (inactive)
UACC-257
  GI50: > 100 µM (inactive)
SK-MEL-5
  GI50: > 100 µM (inactive)
IGROV-1
  GI50: > 100 µM (inactive)
M14
  GI50: > 100 µM (inactive)
RPMI-8226
  GI50: > 100 µM (inactive)
SF-539
  GI50: > 100 µM (inactive)
OVCAR-4
  GI50: > 100 µM (inactive)
OVCAR-8
  GI50: > 100 µM (inactive)
ACHN
  GI50: > 100 µM (inactive)
MDA-MB-231
  GI50: > 100 µM (inactive)
SNB-19
  GI50: > 100 µM (inactive)
HOP-92
  GI50: > 100 µM (inactive)
OVCAR-5
  GI50: > 100 µM (inactive)
SK-MEL-28
  GI50: > 100 µM (inactive)
Malme-3M
  GI50: > 100 µM (inactive)
SF-295
  GI50: > 100 µM (inactive)
OVCAR-3
  GI50: > 100 µM (inactive)
CCRF-CEM
  GI50: > 100 µM (inactive)
A549
  GI50: > 100 µM (inactive)
HCT-116
  GI50: > 100 µM (inactive)
HL-60
  GI50: > 100 µM (inactive)
MDA-N
  GI50: > 100 µM (inactive)
SW-620
  GI50: > 100 µM (inactive)
Hs-578T
  GI50: > 100 µM (inactive)
DU-145
  GI50: > 100 µM (inactive)
T47D
  GI50: > 100 µM (inactive)
NCI/ADR-RES
  GI50: > 100 µM (inactive)
KM12
  GI50: > 100 µM (inactive)
MDA-MB-435
  GI50: > 100 µM (inactive)
A498
  GI50: > 100 µM (inactive)
TK-10
  GI50: > 100 µM (inactive)
EKVX
  GI50: > 100 µM (inactive)
LOX IMVI
  GI50: > 100 µM (inactive)

Reference: ChEMBL document CHEMBL1201862, “PubChem BioAssay data set” (2004)
